Source: US20100016352A1, “COMPOUNDS AND METHODS FOR TREATING ESTROGEN RECEPTOR-RELATED DISEASES” (priority 2008, published 2010)

Experiments:
[1] = tested on: MCF7 cells; experiment: Cell apoptosis assay in ER-positive breast cancer MCF7 cells (cell number after treatment); assay type: cell-based, human; conditions: 10 days
From the text: Cell Apoptosis Assay in ER-Positive Breast Cancer MCF7 Cells
MCF7 cell line is a breast cancer cell line that strongly expresses ER-α66, ER-α46 and ER-α36 (Relevance of breast cancer cell lines as models for breast tumours: an update. Marc Lacroix, Guy Leclercq, Breast Cancer Research and Treatment (2004) 83, 249-289; Wang et al., Proc. Natl. Acad. Sci. U.S.A. 103:9063-9068 (2006)). MCF7 cells obtained from ATCC are maintained in DMEM/F12 medium (Invitrogen) supplemented with 10% fetal calf serum at 37° C. in a 5% CO2 atmosphere. The MCF7 cells are treated with the test compounds 6, 8, 14, 22, 27, 29, 30, 31, 36 and 38 at concentrations from 1 μM to 25 μM to test the effect of these compounds on MCF7 cell growth for 10 days. The control assay is conducted with MCF7 cells under the same assay conditions except that no test compound is added. Treated cells are examined under a Nikon TS100 inverted microscope and photographed for morphological changes.

[2] = tested on: Human Breast Cancer BCAP-37 Cells xenografts; experiment: In vivo efficacy in inhibiting growth of human breast cancer BCAP-37 cells xenografts in nude mice; conditions: Mus musculus, Bcap37, po, 360 h; female nude mice, BCAP-37 xenograft, 35 mg/kg fed once every day for 15 days, tumor weight vs olive oil negative control; read-out: Inhibition rate of tumor growth (%)
Description: The In Vivo Efficacy in Inhibiting Growth of Human Breast Cancer BCAP-37 Cells Xenografts in Nude Mice Model
Nude mice with breast cancer xenografts are treated with the test compounds 5, 6, 8, 14, 22, 36 and 38 to test their effect on inhibiting tumor growth. Tumor tissues are taken from nude mice bearing BCAP-37 breast cancer and cut into small pieces. Several pieces of the tumor tissues are implanted into the armpit under the right front limb of female nude mice. After the implantation, the mice are fed with E2β solution once every day at the dosage of 7 μg per mouse for 6 days to stimulate tumor growth in the receiving mice. Starting on the seventh day, the mice are fed with the test compounds at the dosage of 35 mg/kg. Tamoxifen is used as a positive control. Olive oil is used as a negative control. The test compounds are prepared as an olive oil solution (20 mg/mL). The mice are given the test compounds and Tamoxifen at the dosage of 35 mg/kg or olive oil once every day for 15 days. Then the mice are sacrificed and the tumor tissues are dissected from the mice and weighed. The tumor growth inhibition rate is a percentage calculated using the formula: tumor growth inhibition rate=(average weight of the tumor in the negative control−average weight of the tumor treated with test compound)/average weight of the tumor in the negative control.

[3] = MCF-7, tested compound concentration 1 μM
[4] = MCF-7, tested compound concentration 5 μM
[5] = MCF-7, tested compound concentration 10 μM
[6] = MCF-7, tested compound concentration 15 μM
[7] = MCF-7, tested compound concentration 25 μM

Compound	Cell Number (×10^4) [1, 3]	Cell Number (×10^4) [1, 4]	Cell Number (×10^4) [1, 5]	Cell Number (×10^4) [1, 6]	Cell Number (×10^4) [1, 7]	inhibition in vivo at 35 mg/kg [2]
COc1ccc(-c2cc(=O)c3c(O)cc(O)c(CC=C(C)C)c3o2)cc1Cl [Compound 27, 2-(3-chloro-4-methoxyphenyl)-5,7-dihydroxy-8-(3-methylbut-2-enyl)-4H-chromen-4-one]	59.4 ×10^4	45.2 ×10^4	5.4 ×10^4	1.05 ×10^4	0 ×10^4	–
CC(C)=CCc1c(O)ccc2c(=O)cc(-c3ccc(F)cc3)oc12 [Compound 31, 2-(4-fluorophenyl)-7-hydroxy-8-(3-methylbut-2-enyl)-4H-chromen-4-one]	24.0 ×10^4	25.5 ×10^4	27.25 ×10^4	9.6 ×10^4	7.5 ×10^4	–
CC(C)=CCc1c(O)ccc2c(=O)cc(-c3ccncc3)oc12 [Compound 36, 7-hydroxy-8-(3-methylbut-2-enyl)-2-(pyridin-4-yl)-4H-chromen-4-one]	25.6 ×10^4	14.8 ×10^4	10.65 ×10^4	3.65 ×10^4	1.4 ×10^4	56%
CC(C)=CCc1c(O)cc(O)c2c(=O)cc(-c3ccc(Cl)cc3)oc12 [Compound 22, 2-(4-chlorophenyl)-5,7-dihydroxy-8-(3-methylbut-2-enyl)-4H-chromen-4-one]	39.0 ×10^4	21.6 ×10^4	15.6 ×10^4	4.2 ×10^4	0.6 ×10^4	66%
COc1ccc(-c2oc3c(CCC(C)(C)O)c(O)cc(O)c3c(=O)c2OC)cc1OC [Compound 6, 5,7-dihydroxy-8-(3-hydroxy-3-methylbutyl)-3-methoxy-2-(3,4-dimethoxyphenyl)-4H-chromen-4-one]	18.35 ×10^4	8.97 ×10^4	3.95 ×10^4	3.9 ×10^4	3.87 ×10^4	44%
COc1ccc(-c2oc3c(CC=C(C)C)c(O)cc(O)c3c(=O)c2OC)cc1OC [Compound 5, 5,7-dihydroxy-3-methoxy-2-(3,4-dimethoxyphenyl)-8-(3-methylbut-2-enyl)-4H-chromen-4-one]	–	–	–	–	–	26%
COc1ccc(-c2oc3c(CCC(C)(C)N)c(O)cc(O)c3c(=O)c2O)cc1 [Compound 8, 8-(3-amino-3-methylbutyl)-3,5,7-trihydroxy-2-(4-methoxyphenyl)-4H-chromen-4-one]	28.75 ×10^4	15.35 ×10^4	10.1 ×10^4	6.45 ×10^4	0.25 ×10^4	62%
CC/C(=C(\c1ccccc1)c1ccc(OCCN(C)C)cc1)c1ccccc1 [Tamoxifen, reference compound]	–	–	–	–	–	40 to 50%
CC(C)=CCc1c(O)ccc2c(=O)cc(-c3cccnc3)oc12 [Compound 38, 7-hydroxy-8-(3-methylbut-2-enyl)-2-(pyridin-3-yl)-4H-chromen-4-one]	27.8 ×10^4	19.66 ×10^4	13.8 ×10^4	10.1 ×10^4	2.6 ×10^4	24%
CC(C)=CCc1c(O)ccc2c(=O)cc(-c3ccc(C(F)(F)F)cc3)oc12 [Compound 29, 2-(4-(trifluoromethyl)phenyl)-7-hydroxy-8-(3-methylbut-2-enyl)-4H-chromen-4-one]	27.9 ×10^4	30.1 ×10^4	24.3 ×10^4	23.4 ×10^4	12.3 ×10^4	–
CC(C)=CCc1c(O)ccc2c(=O)cc(-c3ccc(C)cc3)oc12 [Compound 30, 7-hydroxy-8-(3-methylbut-2-enyl)-2-(4-methylphenyl)-4H-chromen-4-one]	21.1 ×10^4	10.8 ×10^4	5.8 ×10^4	3.6 ×10^4	1.5 ×10^4	–
COc1c(-c2ccc(Cl)cc2)oc2c(CC=C(C)C)c(O)cc(O)c2c1=O [Compound 14, 2-(4-chlorophenyl)-5,7-dihydroxy-3-methoxy-8-(3-methylbut-2-enyl)-4H-chromen-4-one]	30.05 ×10^4	14.54 ×10^4	2.51 ×10^4	0 ×10^4	0 ×10^4	37%
